From US9834542B2, “LXR modulators” (BRISTOL-MYERS SQUIBB COMPANY, priority 2013, dated 2017)

Biological target: T1, LXRβ (Homo sapiens, UniProt P55055)
T1 construct: Co-transfection expression plasmids, comprising full-length LXRα (pCMX-h LXRα[…] or LXRβ (pCMX-hLXRβ)); expressed in transfected cells; host or cells: CV-1 African Green Monkey Kidney Cells
T1 sequence (P55055 1-460): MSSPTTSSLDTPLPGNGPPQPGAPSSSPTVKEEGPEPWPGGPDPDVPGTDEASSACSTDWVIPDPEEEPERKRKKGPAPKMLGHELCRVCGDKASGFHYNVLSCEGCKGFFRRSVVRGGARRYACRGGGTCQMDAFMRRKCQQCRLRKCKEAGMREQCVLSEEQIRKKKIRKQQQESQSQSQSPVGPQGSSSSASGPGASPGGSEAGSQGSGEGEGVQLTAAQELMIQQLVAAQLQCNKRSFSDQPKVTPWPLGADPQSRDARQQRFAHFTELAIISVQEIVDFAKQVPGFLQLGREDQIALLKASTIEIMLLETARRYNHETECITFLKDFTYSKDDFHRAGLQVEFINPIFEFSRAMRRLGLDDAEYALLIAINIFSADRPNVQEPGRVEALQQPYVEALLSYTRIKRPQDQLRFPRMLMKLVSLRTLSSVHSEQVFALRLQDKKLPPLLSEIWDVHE
T1 sequence (P19793 1-462 partner): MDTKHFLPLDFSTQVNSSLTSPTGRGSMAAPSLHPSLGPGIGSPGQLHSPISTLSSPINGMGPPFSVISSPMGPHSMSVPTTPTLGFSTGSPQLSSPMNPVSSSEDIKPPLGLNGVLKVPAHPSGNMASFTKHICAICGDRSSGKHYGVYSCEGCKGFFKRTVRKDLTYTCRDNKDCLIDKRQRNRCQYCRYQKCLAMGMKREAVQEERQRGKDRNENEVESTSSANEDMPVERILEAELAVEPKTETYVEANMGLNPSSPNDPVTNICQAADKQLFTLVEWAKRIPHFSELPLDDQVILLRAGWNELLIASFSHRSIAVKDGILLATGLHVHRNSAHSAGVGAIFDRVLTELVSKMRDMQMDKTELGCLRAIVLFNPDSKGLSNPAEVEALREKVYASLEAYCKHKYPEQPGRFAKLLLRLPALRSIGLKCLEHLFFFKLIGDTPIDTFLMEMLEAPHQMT
Test: Co-transfection assay (LXRE luciferase reporter), LXRβ
Format: cell-based
Settings: for EC50: CV-1 cells transfected with pCMX-hLXRβ and LXREx1-Tk-Luciferase, 20 hours incubation; for Emax: LXRβ co-transfection, relative to high control 1-(2,4-difluorobenzyl)-2-oxo-6-(4-phenoxyphenyl)-4-(trifluoromethyl)-1,2-dihydropyridine-3-carbonitrile, read-out: % Efficacy
Method in brief: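 CV-1 cells transiently co-transfected with full-length human LXRβ (or LXRα), LXREx1-Tk-luciferase reporter and β-galactosidase control; compound added (10 μM final in single-point, 11-point ½-log curves, ≤0.5% DMSO) for 20 h at 37 °C. Luciferase read; EC50 from four-parameter fit, efficacy relative to reference agonist high control.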

| SMILES | EC50 [nM] | Emax [%] |
| --- | --- | --- |
| Cc1nc(C(F)(F)F)cn1-c1ccc(-c2ccc(CO)c(S(C)(=O)=O)c2)cc1-c1nc(CC(C)O)oc1-c1ccc(OC(F)(F)F)cc1 (stereo not drawn) [Example 535, 1-(4-(4′-(hydroxymethyl)-4-(2-methyl-4-(trifluoromethyl)-1H-imidazol-1-yl)-3'-(methylsulfonyl)-[1,1′-biphenyl]-3-yl)-5-(4-(trifluoromethoxy)phenyl)oxazol-2-yl)propan-2-ol] | 617 | 62 |
| CNS(=O)(=O)c1cccc(-c2ccc(-n3cc(C(F)(F)F)nc3C)c(-c3nc(C)oc3-c3ccc(OC(F)F)cc3)c2)c1 [Example 540, 3′-(5-(4-(difluoromethoxy)phenyl)-2-methyloxazol-4-yl)-N-methyl-4′-(2-methyl-4-(trifluoromethyl)-1H-imidazol-1-yl)-[1,1′-biphenyl]-3-sulfonamide] | 28 | 106 |
| Cc1nc(-c2cc(-c3cccc(S(=O)(=O)N(C)C)c3)ccc2-n2cc(C(F)(F)F)nc2C)c(-c2ccc(OC(F)F)cc2)o1 [Example 541, 3′-(5-(4-(difluoromethoxy)phenyl)-2-methyloxazol-4-yl)-dimethyl-4′-(2-methyl-4-(trifluoromethyl)-1H-imidazol-1-yl)-[1,1′-biphenyl]-3-sulfonamide] | 25 | 90 |
| Cc1nc(-c2cc(-c3cccc(C(C)(C)C(N)=O)c3)ccc2-n2cc(C(F)(F)F)nc2C)c(-c2ccc(OC(F)F)cc2)o1 [Example 542, 2-(3′-(5-(4-(difluoromethoxy)phenyl)-2-methyloxazol-4-yl)-4′-(2-methyl-4-(trifluoromethyl)-1H-imidazol-1-yl)-[1,1′-biphenyl]-3-yl)-2-methylpropanamide] | 82 | 89 |
| Cc1nc(-c2cc(-c3cc(F)c(CO)c(S(C)(=O)=O)c3)ccc2-n2cc(C(F)(F)F)nc2C)c(-c2ccc(SC(F)(F)F)cc2)o1 [Example 543] | 67 | 48 |

More lines, now with the values ahead:

| EC50 [nM] | Emax [%] | SMILES |
| --- | --- | --- |
| 280 | 82 | Cc1nc(C(F)(F)F)cn1-c1ccc(-c2cccc(S(C)(=O)=O)c2)cc1-c1nc(CC(C)O)oc1-c1ccc(OC(F)(F)F)cc1 (stereo not drawn) [Example 536, 1-(4-(4-(2-methyl-4-(trifluoromethyl)-1H-imidazol-1-yl)-3′-(methylsulfonyl)-[1,1′-biphenyl]-3-yl)-5-(4-(trifluoromethoxy)phenyl)oxazol-2-yl)propan-2-ol] |
| 661 | 100 | Cc1nc(C(F)(F)F)cn1-c1ccc(-c2cccc(S(C)(=O)=O)c2)cc1-c1nc(CC(=O)O)oc1-c1ccc(OC(F)(F)F)cc1 [Example 537, 2-(4-(4-(2-methyl-4-(trifluoromethyl)-1H-imidazol-1-yl)-3′-(methylsulfonyl)-[1,1′-biphenyl]-3-yl)-5-(4-(trifluoromethoxy)phenyl)oxazol-2-yl)acetic acid] |
| 205 | 79 | Cc1nc(C(F)(F)F)cn1-c1ccc(-c2cccc(S(C)(=O)=O)c2)cc1-c1nc(CN(C)C)oc1-c1ccc(OC(F)(F)F)cc1 [Example 538, N,N-dimethyl-1-(4-(4-(2-methyl-4-(trifluoromethyl)-1H-imidazol-1-yl)-3′-(methylsulfonyl)-[1,1′-biphenyl]-3-yl)-5-(4-(trifluoromethoxy)phenyl)oxazol-2-yl)methanamine] |
| 206 | 81 | COCS(=O)(=O)c1cccc(-c2ccc(-n3cc(C(F)(F)F)nc3C)c(-c3nc(C)oc3-c3ccc(OC(F)(F)F)cc3)c2)c1 [Example 539, 4-(3′-((methoxymethyl)sulfonyl)-4-(2-methyl-4-(trifluoromethyl)-1H-imidazol-1-yl)-[1,1′-biphenyl]-3-yl)-2-methyl-5-(4-(trifluoromethoxy)phenyl)oxazole] |
